{"source": "paper PMC10709440", "about": "“High-throughput ligand profile characterization in novel cell lines expressing seven heterologous insect olfactory receptors for the detection of volatile plant biomarkers” (Scientific Reports, 2023)", "key": {"OR85b receptor": {"target": "OR85b receptor", "conditions": "cited from earlier work"}, "Drosophila OR85b": {"target": "T1, Drosophila OR85b (Drosophila melanogaster, UniProt Q9VHQ7)", "T1 construct": "expressed in transfected cells", "T1 sequence (Q9VHQ7 1-390)": "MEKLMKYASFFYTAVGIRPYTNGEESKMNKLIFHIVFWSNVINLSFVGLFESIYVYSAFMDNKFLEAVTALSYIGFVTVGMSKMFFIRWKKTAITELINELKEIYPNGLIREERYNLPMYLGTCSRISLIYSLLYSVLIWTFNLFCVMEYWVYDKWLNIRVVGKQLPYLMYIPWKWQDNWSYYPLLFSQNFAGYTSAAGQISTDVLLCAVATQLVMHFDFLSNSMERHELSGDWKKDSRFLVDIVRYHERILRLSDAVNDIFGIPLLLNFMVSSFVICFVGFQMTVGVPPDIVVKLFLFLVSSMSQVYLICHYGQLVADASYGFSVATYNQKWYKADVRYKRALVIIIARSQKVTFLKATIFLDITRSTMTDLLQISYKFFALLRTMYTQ", "T1 sequence (Q9VNB5 1-486 partner)": "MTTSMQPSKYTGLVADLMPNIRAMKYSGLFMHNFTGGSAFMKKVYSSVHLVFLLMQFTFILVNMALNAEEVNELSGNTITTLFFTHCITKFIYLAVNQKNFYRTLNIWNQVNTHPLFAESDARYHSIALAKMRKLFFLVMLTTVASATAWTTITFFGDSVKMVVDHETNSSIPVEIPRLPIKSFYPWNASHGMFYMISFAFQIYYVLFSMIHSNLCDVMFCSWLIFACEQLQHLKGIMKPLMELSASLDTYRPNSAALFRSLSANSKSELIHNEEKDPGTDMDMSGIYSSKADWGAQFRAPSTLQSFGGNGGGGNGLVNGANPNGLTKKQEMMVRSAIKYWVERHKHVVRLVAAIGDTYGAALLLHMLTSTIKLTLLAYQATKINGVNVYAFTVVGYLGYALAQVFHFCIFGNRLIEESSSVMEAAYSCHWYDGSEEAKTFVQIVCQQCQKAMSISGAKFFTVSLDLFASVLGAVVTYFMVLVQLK", "assay": "cell-based", "set-up": "GCaMP6 calcium fluorescence in stable HEK293 OR+ORCO lines; peak dF normalised to 50 uM VUAA1 (=1)", "conditions": "HEK293; relative to 50 uM VUAA1 response; below 0.05 set to 0; read-out: % activation", "how_it_was_run": "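Responses to VOCs (1, 10, 100 µM final) were read as fluorescence rise over baseline for 30 s in cells expressing the OR after 48–72 h doxycycline induction, in pH 7.3 buffer. ΔF values were divided by the same line's mean ΔF to 50 µM VUAA1 on that plate. Data are means of replicate days.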"}, "OR13a": {"test_system": "OR13a", "conditions": "insect cell line stably expressing OR13a; read-out: EC50 of concentration-dependent Ca2+ signals; cited from earlier work"}, "OR47a": {"test_system": "OR47a", "conditions": "similar system to Xenopus oocytes, cited from earlier work"}}, "note": "Like-named read-outs stand apart in the source and are kept apart here."}
{"compound": "CCCCCC(C)=O", "note": "[2-heptanone]", "values": [{"measurement": "EC50", "setting": "OR85b receptor; OR85b in Xenopus oocytes, Nichols and Luetje, read-out: EC50", "value": "70 ± 20", "unit": "µM"}, {"measurement": "EC50", "setting": "OR85b receptor; OR85b, Misawa et al., read-out: average EC50", "value": 45.6, "unit": "µM"}]}
{"compound": "CC/C=C/CCO", "note": "[e3-hexenol]", "values": [{"measurement": "activity at 1 µM", "setting": "Drosophila OR85b", "value": 0, "unit": "%"}, {"measurement": "activity at 10 µM", "setting": "Drosophila OR85b", "value": 0, "unit": "%"}, {"measurement": "activity at 100 µM", "setting": "Drosophila OR85b", "value": 0, "unit": "%"}]}
{"compound": "C=CC(O)CCCCC", "note": "(centres unmarked) [1-octen-3-ol]", "values": [{"measurement": "EC50", "setting": "OR13a", "value": 4.33, "unit": "µM"}]}
{"compound": "CCCCCOC(C)=O", "note": "[pentyl acetate]", "values": [{"measurement": "EC50", "setting": "OR47a; ref 34, read-out: calculated EC50", "value": "30.8 ± 1.28", "unit": "µM"}, {"measurement": "EC50", "setting": "OR47a; ref 39, read-out: calculated EC50", "value": "10.7 ± 2", "unit": "µM"}]}
